The structures appear in SMILES notation.

Results on one molecule are retold here after patent US8030335B2, “Use of liver X receptor agonists” (Laboratoires Fournier S.A., priority 2005, dated 2011).

The subject of assay [1] is Glut2 mRNA. Nature of the assay: Real-time quantitative RT-PCR of Glut2 in isolated islets of treated ZDF rats. Format: in vivo, rat. The following applies: normalized to 18S rRNA, vehicle ZDF 0.27, fa+ 0.40±0.22. Here is the method: Pancreatic and duodenal homeobox gene 1, Pdx1 (Genbank: NM_022852) and facilitated glucose transporter, member 2, Glut2 (Genbank: NM_012879) gene expression were measured by real time quantitative RT-PCR. Total RNAs from fresh isolated rat pancreatic islets were prepared using Rneasy 96 Kit according to the manufacturer's protocol (Qiagen, France), treated with Dnase I to remove contaminating DNA (Stratagene, France), and quantified using the iScript cDNA Synthesis and iQ SYBR Green Supermix kits (Biorad, france). Real-time quantitative RT-PCR was performed using the iCycler Detection System instrument and software (Bio-Rad). As the predicted size of the amplified cDNAs and the Tm values for the primers were similar, uniform amplification conditions were applied (ie. annealing at 60° C.). Specificity of amplified products was monitored by performing melting curves at the end of each amplification. Expression levels were quantified (total RNA units) by generating a six-point serial standard curve. RNA samples were normalized for comparison by determining 18S rRNA levels. In this example, the mRNA expression of PDX1 and Glut2 was determined. As previously described, PDX1 and Glut2 are markers of the regeneration of beta cells. […] PDX1 and Glut2 mRNA expression was increased in islets isolated from GW3965-compared to vehicle-treated ZDF rats. […]

Assay [2] relates to pancreatic islets. Nature of the assay: Number of harvested pancreatic islets in treated ZDF rats. Format: in vivo, rat. The following applies: 10 mg/kg oral for 3 weeks, vehicle 51±13, fa+ 120±28, mean±SEM. The method, then: Male ZDF fa/fa and ZDF fa+ rats were obtained from Genetic Models (Indianapolis, Ind.), at the age of 6 weeks and used in the experiments at 12 weeks of age, after 3 weeks of oral treatment with vehicle or GW3965 (10 mg/kg). Compounds were given once daily (at 17 h) via oral gavage. At the time of their use, the ZDF fa/fa rats weighed 310-350 g, whereas the age-matched ZDF fa+ rats weighed 245-285 g. ZDF fa+ and ZDF fa/fa animals had free access to diabetogenic chow (Purina 5008). Animals were housed 5 per cage in a temperature and humidity-controlled room with a 12/12-h light-dark cycle. Blood samples were taken 16 h after compound administration via the tail vein and measured on a Konelab 300 (Labsystem) clinical chemistry analyzer. Rat pancreatic islets were prepared by collagenase digestion and density gradient purification. The enzyme collagenase type XI (Sigma Chemical, St. Louis, Mo.) was used for digestion of the pancreas. After an overnight fast, animals were deeply anesthetized and killed. Then, the pancreatic duct was cannulated, and 20 ml of the digestion solution at 37° C. (collagenase 30 mg/ml dissolved in 20 ml Hanks' balanced salt solution [HBSS]) (Sigma Chemical, St. Louis, Mo.) was slowly injected to distend the tissue. […]

In assay [3] the test system is NOD mice. Nature of the assay: Regeneration of beta cells in NOD mice (pancreatic histology). Format: in vivo, mouse. The note with it: NOD mice of 4 weeks old, 50 mg/kg for 4 weeks (5 days/7). The text has this:
NOD (non-obese diabetes) mice is an experimental model of spontaneous resembling human Type I (insulin-dependent) diabetes, which results from the progressive islet invasion and beta cells destruction by autoreactive T cells. This spontaneous diabetes model offers a unique opportunity of studying the autoreactive T cells involved in the process of beta cell destruction and of settling preventive strategies before clinical onset of the disease. Non fasted mice were killed two days after the last administration of compounds. Pancreatic glands were excised and processed for conventional histological studies after fixation in Bouin's alcoholic solution. Five μm sections were stained with haematoxylin-eosin as described previously by Thivolet C. H. et al., 1991, Diabetologia, 34, 314-319. NOD mice of 4 weeks old have been treated for 4 weeks (5 days/7) with vehicle or GW3965 at 50 mg/kg. Pancreatic histological studies have been carried out as described above.

Take `O=C(O)Cc1cccc(OCCCN(Cc2cccc(C(F)(F)F)c2Cl)CC(c2ccccc2)c2ccccc2)c1` [GW3965]: the “Glut2 mRNA expression” value in assay [1] was determined as 0.55±0.23. For the same molecule, the “number of harvested pancreatic islets” value in assay [2] was 80±16 islets/rat. Also, in assay [3], the “regeneration of beta cells (formation of new islets)” value is reported as “formation of new islets”.
